Results from patent US20030191144A1, “Compounds, compositions and methods for modulating beta-amyloid production” (Active Pass Pharmaceuticals, Inc., priority 2001, published 2003).

Tested on: Aβ42 production and/or release from SM-4 cells
Test: Aβ42 ELISA of culture media from SM-4 cells
Format: cell-based
Conditions: 16 hrs
Description: Cell Lines and Pharmacological Treatments. 293 EBNA cells (InVitrogen, Carlsbad, Calif.) stably transfected with Swedish mutant β-Amyloid Precursor Protein -695 (SM4 cells) were routinely maintained in DMEM supplemented with sodium pyruvate (1 mM) and 10% fetal bovine serum. Cells were seeded into poly-D-Lysine (SIGMA) coated 6-well plates at a density of 5-7×10^5 cells per well. Subsequently, the cells were rinsed in 1 ml of PBS and treated with 10-500 μM of pirinixic acid in serum-free/phenol red-free DMEM for 16 hours.
(§1) Aβ Detection and Standardization. After the pharmacological treatment, the exposure media was collected and supplemented with 10% sample treatment buffer (40 mM sodium phosphate (pH 7.4), 40 mM triethanolamine, 0.1% Triton X-100, 200 mM NaCl, 2 mM EGTA, 0.1% Sodium azide), and assayed for either Aβ40 or Aβ42 by a calorimetric ELISA as per the manufacturer's protocol (Biosource International Inc, California). The cells were lysed in 0.1% Triton X-100 in PBS supplemented with 5 μM propridium iodide (Molecular Probes, Eugene, Oreg.) and incubated at 37° C. for 30 minutes prior to measuring fluorescence. Aβ40 and Aβ42 were standardized against propridium iodide fluorescence as a measure of total cell number. […]
as §1, with “After” for “Aβ Detection and Standardization. After”
After the pharmacological treatment, the exposure media was collected and supplemented with 10% sample treatment buffer (40 mM sodium phosphate (pH 7.4), 40 mM triethanolamine, 0.1% Triton X-100, 200 mM NaCl, 2 mM EGTA, 0.1% Sodium azide), and assayed for either Aβ40 or Aβ42 by a colorimetric ELISA as per the manufacturer's protocol (Biosource International Inc, California). The cells were lysed in 0.1% Triton X-100 in PBS supplemented with 5 μM propridium iodide (Molecular Probes, Eugene, Oreg.) and incubated at 37° C. for 30 minutes prior to measuring fluorescence. Aβ40 and Aβ42 were standardized against propridium iodide fluorescence as a measure of total cell number.

Question: How did the “decrease in Aβ42” value (50 μM, p<0.001) turn out when Cc1cccc(Nc2cc(Cl)nc(SCC(=O)O)n2)c1C [pirinixic acid] was run?
Answer: 15%

Question: What about the “decrease in Aβ42” value (500 μM) of the same molecule?
Answer: 60%
